# Key:
# Type in all cases: functional
# Pseudomonas aeruginosa [1] = test: Antimicrobial activity against Pseudomonas aeruginosa ATCC 9027 at 1 ug/ml after 24 hrs by agar diffusion method; settings: ATCC 9027, 24 h, read-out: DIZ
# Candida albicans [2] = test: Antimicrobial activity against Candida albicans ATCC 32354 at 1 ug/ml after 24 hrs by agar diffusion method; settings: ATCC 32354, 24 h, read-out: DIZ
# Staphylococcus aureus [3] = test: Antimicrobial activity against Staphylococcus aureus ATCC 25923 at 1 ug/ml after 24 hrs by agar diffusion method; settings: ATCC 25923, 24 h, read-out: DIZ
# Escherichia coli [4] = test: Antimicrobial activity against Escherichia coli ATCC 25922 at 1 ug/ml after 24 hrs by agar diffusion method; settings: ATCC 25922, 24 h, read-out: DIZ
# Salmonella enterica [5] = test: Antimicrobial activity against Salmonella enterica ATCC 14028 at 1 ug/ml after 24 hrs by agar diffusion method; settings: ATCC 14028, 24 h, read-out: DIZ
# Bacillus subtilis [6] = test: Antimicrobial activity against Bacillus subtilis ATCC 6633 at 1 ug/ml after 24 hrs by agar diffusion method; settings: ATCC 6633, 24 h, read-out: DIZ
# Pseudomonas aeruginosa [7] = test: Antimicrobial activity against 10^7 CFU/ml Pseudomonas aeruginosa ATCC 9027 after 22 hrs by serial microdilution method; settings: ATCC 9027, 22 h
# Bacillus subtilis [8] = test: Antimicrobial activity against 10^7 CFU/ml Bacillus subtilis ATCC 6633 after 22 hrs by serial microdilution method; settings: ATCC 6633, 22 h
# Staphylococcus aureus [9] = test: Antimicrobial activity against 10^4 CFU/ml Staphylococcus aureus ATCC 25923 after 22 hrs by serial microdilution method; settings: ATCC 25923, 22 h
# Bacillus subtilis [10] = test: Antimicrobial activity against 10^4 CFU/ml Bacillus subtilis ATCC 6633 after 22 hrs by serial microdilution method; settings: ATCC 6633, 22 h
# Salmonella enterica [11] = test: Antimicrobial activity against 10^7 CFU/ml Salmonella enterica ATCC 14028 after 22 hrs by serial microdilution method; settings: ATCC 14028, 22 h
# Staphylococcus aureus [12] = test: Antimicrobial activity against 10^7 CFU/ml Staphylococcus aureus ATCC 25923 after 22 hrs by serial microdilution method; settings: ATCC 25923, 22 h
# Escherichia coli [13] = test: Antimicrobial activity against 10^7 CFU/ml Escherichia coli ATCC 25922 after 22 hrs by serial microdilution method; settings: ATCC 25922, 22 h
# Escherichia coli [14] = test: Antimicrobial activity against 10^4 CFU/ml Escherichia coli ATCC 25922 after 22 hrs by serial microdilution method; settings: ATCC 25922, 22 h
# Candida albicans [15] = test: Antimicrobial activity against 10^7 CFU/ml Candida albicans ATCC 32354 after 22 hrs by serial microdilution method; settings: ATCC 32354, 22 h
# Salmonella enterica [16] = test: Antimicrobial activity against 10^4 CFU/ml Salmonella enterica ATCC 14028 after 22 hrs by serial microdilution method; settings: ATCC 14028, 22 h
# Candida albicans [17] = test: Antimicrobial activity against 10^4 CFU/ml Candida albicans ATCC 32354 after 22 hrs by serial microdilution method; settings: ATCC 32354, 22 h
# Pseudomonas aeruginosa [18] = test: Antimicrobial activity against 10^4 CFU/ml Pseudomonas aeruginosa ATCC 9027 after 22 hrs by serial microdilution method; settings: ATCC 9027, 22 h
SMILES,zone of inhibition at 1 µg/mL (Pseudomonas aeruginosa [1]) [mm],zone of inhibition at 1 µg/mL (Candida albicans [2]) [mm],zone of inhibition at 1 µg/mL (Staphylococcus aureus [3]) [mm],zone of inhibition at 1 µg/mL (Escherichia coli [4]) [mm],zone of inhibition at 1 µg/mL (Salmonella enterica [5]) [mm],zone of inhibition at 1 µg/mL (Bacillus subtilis [6]) [mm],MBC (Pseudomonas aeruginosa [7]) [µg/mL],MIC (Pseudomonas aeruginosa [7]) [µg/mL],MBC (Bacillus subtilis [8]) [µg/mL],MIC (Bacillus subtilis [8]) [µg/mL],MBC (Staphylococcus aureus [9]) [µg/mL],MIC (Staphylococcus aureus [9]) [µg/mL],MBC (Bacillus subtilis [10]) [µg/mL],MIC (Bacillus subtilis [10]) [µg/mL],MBC (Salmonella enterica [11]) [µg/mL],MIC (Salmonella enterica [11]) [µg/mL],MBC (Staphylococcus aureus [12]) [µg/mL],MIC (Staphylococcus aureus [12]) [µg/mL],MBC (Escherichia coli [13]) [µg/mL],MIC (Escherichia coli [13]) [µg/mL],other results
CC[N+]12CC[N+](CCCCC[N+]34CC[N+](CC)(CC3)CC4)(CC1)CC2,0,0,0,0,0,0,,,,,,,,,,,,,,,
CCC[N+]12CC[N+](CCCCC[N+]34CC[N+](CCC)(CC3)CC4)(CC1)CC2,0,0,0,0,0,0,,,,,,,,,,,,,,,
CCCCCCC[N+]12CC[N+](CCCCC[N+]34CC[N+](CCCCCCC)(CC3)CC4)(CC1)CC2,0,0,5,4,0,5,,,,,,,,,,,,,,,
CCCCCCCC[N+]12CC[N+](CCCCC[N+]34CC[N+](CCCCCCCC)(CC3)CC4)(CC1)CC2.[Br-].[Br-].[Br-].[Br-],0,0,8,4,4,10,> 100,> 100,100,50,100,12.5,50,25,> 100,100,> 100,50,100,25,MBC (Escherichia coli [14]): 50 µg/mL; MIC (Escherichia coli [14]): 12.5 µg/mL; MBC (Candida albicans [15]): < 1.6 µg/mL; MIC (Candida albicans [15]): < 1.6 µg/mL; MBC (Salmonella enterica [16]): 100 µg/mL; MIC (Salmonella enterica [16]): 100 µg/mL; MBC (Candida albicans [17]): < 1.6 µg/mL; MIC (Candida albicans [17]): < 1.6 µg/mL; MBC (Pseudomonas aeruginosa [18]): 50 µg/mL; MIC (Pseudomonas aeruginosa [18]): 25 µg/mL
CCCCCCCCC[N+]12CC[N+](CCCCC[N+]34CC[N+](CCCCCCCCC)(CC3)CC4)(CC1)CC2.[Br-].[Br-].[Br-].[Br-],0,10,10,10,9,12,100,50,25,25,25,12.5,6.3,6.3,50,25,50,12.5,25,6.3,MBC (Escherichia coli [14]): 12.5 µg/mL; MIC (Escherichia coli [14]): 6.3 µg/mL; MBC (Candida albicans [15]): < 1.6 µg/mL; MIC (Candida albicans [15]): < 1.6 µg/mL; MBC (Salmonella enterica [16]): 50 µg/mL; MIC (Salmonella enterica [16]): 12.5 µg/mL; MBC (Candida albicans [17]): < 1.6 µg/mL; MIC (Candida albicans [17]): < 1.6 µg/mL; MBC (Pseudomonas aeruginosa [18]): 12.5 µg/mL; MIC (Pseudomonas aeruginosa [18]): 12.5 µg/mL
